We go through 13 molecules from patent US7741327B2 (Hoffmann-La Roche Inc., priority 2008, dated 2010).

Experiment [1] deals with T1, Recombinant human liver GK1 (GST-GK) (Homo sapiens, UniProt P35557).
T1 construct: made in house; host or cells: E. coli
T1 sequence (P35557 1-466 isoform P35557-2): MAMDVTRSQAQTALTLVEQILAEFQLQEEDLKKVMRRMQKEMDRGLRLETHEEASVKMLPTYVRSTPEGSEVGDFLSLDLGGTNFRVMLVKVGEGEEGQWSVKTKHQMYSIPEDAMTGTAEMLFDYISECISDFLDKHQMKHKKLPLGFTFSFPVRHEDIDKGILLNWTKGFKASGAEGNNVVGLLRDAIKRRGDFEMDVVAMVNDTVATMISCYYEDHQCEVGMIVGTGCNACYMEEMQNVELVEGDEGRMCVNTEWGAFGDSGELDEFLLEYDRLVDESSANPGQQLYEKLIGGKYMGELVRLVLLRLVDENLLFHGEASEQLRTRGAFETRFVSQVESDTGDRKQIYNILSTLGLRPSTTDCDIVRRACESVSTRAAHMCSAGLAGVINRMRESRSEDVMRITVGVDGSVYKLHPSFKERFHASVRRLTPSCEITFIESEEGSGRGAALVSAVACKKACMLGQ
The experiment in a line: In vitro glucokinase activity (G6PDH-coupled NADH assay). The class given is biochemical. Particulars: 30° C., 5 mM D-glucose, 10% DMSO. The gist of the method:
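GST-tagged human liver GK1 from E. coli, assayed at 30° C in 25 mM Hepes pH 7.1 with 5 mM D-glucose, 1 mM ATP, 1.8 mM NAD and G6PDH coupling, 10% DMSO final; reaction started with enzyme after 10 min preincubation. NADH formation followed at OD340; SC1.5 is activator concentration giving 50% increase over DMSO control rate.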

For another experiment, the system named is C57B6 mice. The experiment in a line: Glucokinase activator in vivo screen: blood glucose lowering in mice after oral dosing. To be noted: Mus musculus, vs control, read-out: % gluc lowering @ 4 H; for change in vivo at 25 mg/kg: 4 h post 25 mg/kg oral dose; for change in vivo at 30 mg/kg: 4 h post 30 mg/kg oral dose. As for the experimental part: Glucokinase Activator in vivo Screen Protocol in Lean and Diet Induced Obese Mice: Lean or Diet-Induced Obese (DIO) C57BL/6J mice were orally dosed via gavage with Glucokinase (GK) activator following a two hour fasting period. Blood glucose determinations were made at various (e.g. 0, 1, 2, 4 and 8 h post-oral gavage) times during the study.
C57Bl/6J mice were obtained from Jackson Laboratory (Bar Harbor, Me.) and were maintained in a light-dark cycle with lights on from 0600-1800 hr. For studies in lean mice, the mice were received at age ten weeks and given ad libitum access to control diet (LabDiet 5001 chow, PMI Nutrition, Brentwood, Mo.), and were at least age 11 weeks at the time of study. For studies in the DIO model, the mice were received at age five weeks and given ad libitum access to Bio-Serv F3282 High Fat Diet (Frenchtown, N.J.), and were at least age 16 weeks at the time of study. The experiments were conducted during the light phase of the light-dark cycle. Mice (n=6) are weighed and fasted for a two hour period prior to oral treatment. GK activators are formulated in Gelucire vehicle (Ethanol:Gelucire44/14:PEG400q.s. 4:66:30 v/w/v. For studies in lean mice, the mice were dosed orally with 5.0 μL per gram of body weight (i.e. 5 ml/kg×10.0 mg/ml formulation to equal a 50 mg/kg dose). For studies in DIO mice, the mice were dosed orally with 5.0 μL per gram of body weight (i.e. 5.0 ml/kg×5 mg/ml formulation to equal a 25 mg/kg dose). Immediately prior to dosing, a pre-dose (time zero) blood glucose reading was acquired by snipping off a small portion of the animal's tail and collecting 15 μL blood into a heparinized capillary tube for analysis. Following GK activator administration, additional blood glucose readings were taken at various time points post dose from the same tail wound. Results were interpreted by comparing the mean blood glucose values of vehicle treated mice with GK activator treated mice over the study period.
The Table below provides data for % glucose lowering of a representative number of compounds of the present invention vs control at 4 h post 25 or 30 mg/kg dose in C57B6 mice: […]

For `COc1ccccc1OC1=CC(=O)N([C@@H](CC2CCCCC2)C(=O)Nc2ccn(CC(C)(C)O)n2)C1` [Example 28, (S)-3-Cyclohexyl-N-[1-(2-hydroxy-2-methyl-propyl)-1H-pyrazol-3-yl]-2-[4-(2-methoxy-phenoxy)-2-oxo-2,5-dihydro-pyrrol-1-yl]-propionamide], the “SC1.5 (concentration of activator that produced a 50% increase in the activity of GK)” value in experiment [1] amounted to 0.013 µM. In the experiment with C57B6 mice, the change in vivo at 25 mg/kg is -45.4%.

On to `COc1ccccc1OC1=CC(=O)N([C@@H](CC2CCCO2)C(=O)Nc2ccn(CC(C)(C)O)n2)C1` (stereo partly drawn) [Example 31, (S)-N-[1-(2-hydroxy-2-methyl-propyl)-1H-pyrazol-3-yl]-2-[4-(2-methoxy-phenoxy)-2-oxo-2,5-dihydro-pyrrol-1-yl]-3-(tetrahydro-furan-2-yl)-propionamide], for which the “SC1.5 (concentration of activator that produced a 50% increase in the activity of GK)” value in experiment [1] stood at 0.348 µM. Further, the change in vivo at 25 mg/kg with C57B6 mice is -31.6%.

Regarding `CC(C)(O)Cn1ccc(NC(=O)[C@H](CC2CCCCC2)N2CC(Oc3ccccc3C(F)(F)F)=CC2=O)n1` [Example 32, (S)-3-Cyclohexyl-N-[1-(2-hydroxy-2-methyl-propyl)-1H-pyrazol-3-yl]-2-[2-oxo-4-(2-trifluoromethyl-phenoxy)-2,5-dihydro-pyrrol-1-yl]-propionamide], in experiment [1], the “SC1.5 (concentration of activator that produced a 50% increase in the activity of GK)” value came to 0.025 µM. For the same molecule, the change in vivo at 25 mg/kg in the experiment on C57B6 mice is -37.5%.

On to `CC(C)(O)Cn1ccc(NC(=O)[C@H](CC2CCOCC2)N2CC(Oc3c(F)cccc3F)=CC2=O)n1` [Example 43, (S)-2-[4-(2,6-Difluoro-phenoxy)-2-oxo-2,5-dihydro-pyrrol-1-yl]-N-[1-(2-hydroxy-2-methylpropyl)-1H-pyrazol-3-yl]-3-(tetrahydro-pyran-4-yl)-propionamide], for which, in experiment [1], the “SC1.5 (concentration of activator that produced a 50% increase in the activity of GK)” value amounted to 0.058 µM. Further, the change in vivo at 30 mg/kg in the experiment with C57B6 mice was -38.1%.

Take `CC(C)C[C@@H](C(=O)Nc1ccn(C[C@@H](O)CO)n1)N1CC(Oc2c(F)cccc2F)=CC1=O` [Example 47, (S)-2-[4-(2,6-difluoro-phenoxy)-2-oxo-2,5-dihydro-pyrrol-1-yl]-4-methyl-pentanoic acid [1-((R)-2,3-dihydroxy-propyl)-1H-pyrazol-3-yl]-amide]: the “SC1.5 (concentration of activator that produced a 50% increase in the activity of GK)” value in experiment [1] turned out to be 0.257 µM. Moreover, the change in vivo at 30 mg/kg in the experiment with C57B6 mice is -33.2%.

As to `COc1cccc(OC2=CC(=O)N([C@@H](CC(C)C)C(=O)Nc3ccn(CC(C)(C)O)n3)C2)c1Cl` [Example 48, (S)-2-[4-(2-Chloro-3-methoxy-phenoxy)-2-oxo-2,5-dihydro-pyrrol-1-yl]-4-methyl-pentanoic acid [1-(2-hydroxy-2-methyl-propyl)-1H-pyrazol-3-yl]-amide], the “SC1.5 (concentration of activator that produced a 50% increase in the activity of GK)” value in experiment [1] was determined as 0.078 µM. Further, in the experiment with C57B6 mice, the change in vivo at 30 mg/kg is -57.4%.

As for `COc1cccc(OC2=CC(=O)N([C@@H](CC(C)C)C(=O)Nc3ccn(C[C@@H](O)CO)n3)C2)c1Cl` [Example 49], the “SC1.5 (concentration of activator that produced a 50% increase in the activity of GK)” value in experiment [1] was determined as 0.079 µM. In the experiment on C57B6 mice, the change in vivo at 30 mg/kg was -38.3%.

Regarding `COc1cccc(OC2=CC(=O)N([C@@H](CC3CCOCC3)C(=O)Nc3ccn(CC(C)(C)O)n3)C2)c1Cl` [Example 51, (S)-2-[4-(2-Chloro-3-methoxy-phenoxy)-2-oxo-2,5-dihydro-pyrrol-1-yl]-N-[1-(2-hydroxy-2-methyl-propyl)-1H-pyrazol-3-yl]-3-(tetrahydro-pyran-4-yl)-propionamide], the “SC1.5 (concentration of activator that produced a 50% increase in the activity of GK)” value in experiment [1] worked out at 0.03 µM. In addition, the change in vivo at 30 mg/kg in the experiment with C57B6 mice was -53.9%.

Turning to `CC(C)C[C@@H](C(=O)Nc1ccn(CC(C)(C)O)n1)N1CC(Oc2ccccc2Cl)=CC1=O` [Example 64, (S)-2-[4-(2-Chloro-phenoxy)-2-oxo-2,5-dihydro-pyrrol-1-yl]-4-methyl-pentanoic acid [1-(2-hydroxy-2-methyl-propyl)-1H-pyrazol-3-yl]-amide], in experiment [1], the “SC1.5 (concentration of activator that produced a 50% increase in the activity of GK)” value came to 0.125 µM. Further, in the experiment on C57B6 mice, the change in vivo at 30 mg/kg was -58%.

In the case of `CC(C)C[C@@H](C(=O)Nc1ccn(C[C@@H](O)CO)n1)N1CC(Oc2ccccc2Cl)=CC1=O` [Example 66, (S)-2-[4-(2-Chloro-phenoxy)-2-oxo-2,5-dihydro-pyrrol-1-yl]-4-methyl-pentanoic acid [1-((R)-2,3-dihydroxy-propyl)-1H-pyrazol-3-yl]-amide], the “SC1.5 (concentration of activator that produced a 50% increase in the activity of GK)” value in experiment [1] stood at 0.118 µM. The change in vivo at 30 mg/kg in the experiment on C57B6 mice is -55.4%.

Take `CC(C)C[C@@H](C(=O)Nc1ccn(CC(C)(C)O)n1)N1CC(Oc2cccc(Cl)c2Cl)=CC1=O.Cl` [Example 77, (S)-2-[4-(2,3-Dichloro-phenoxy)-2-oxo-2,5-dihydro-pyrrol-1-yl]-4-methyl-pentanoic acid [1-(2-hydroxy-2-methyl-propyl)-1H-pyrazol-3-yl]-amide Hydrochloride]: the “SC1.5 (concentration of activator that produced a 50% increase in the activity of GK)” value in experiment [1] was found to be 0.162 µM. In addition, in the experiment on C57B6 mice, the change in vivo at 30 mg/kg is -39.2%.

For `CC(C)(O)Cn1ccc(NC(=O)[C@H](CC2CCCC2)N2CC(Oc3c(F)cccc3F)=CC2=O)n1` [Example 86, (S)-3-Cyclopentyl-2-[4-(2,6-difluoro-phenoxy)-2-oxo-2,5-dihydro-pyrrol-1-yl]-N-[1-(2-hydroxy-2-methyl-propyl)-1H-pyrazol-3-yl]-propionamide], the “SC1.5 (concentration of activator that produced a 50% increase in the activity of GK)” value in experiment [1] was determined as 0.021 µM. The change in vivo at 30 mg/kg with C57B6 mice was -57.4%.

For `O=C(Nc1ccn(C[C@@H](O)CO)n1)[C@H](CC1CCCC1)N1CC(Oc2c(F)cccc2F)=CC1=O` [Example 88, (S)-3-Cyclopentyl-2-[4-(2,6-difluoro-phenoxy)-2-oxo-2,5-dihydro-pyrrol-1-yl]-N-[1-((R)-2,3-dihydroxy-propyl)-1H-pyrazol-3-yl]-propionamide], the “SC1.5 (concentration of activator that produced a 50% increase in the activity of GK)” value in experiment [1] was determined as 0.03 µM. For the same molecule, in the experiment with C57B6 mice, the change in vivo at 30 mg/kg is -49.3%.
